The term chromatographic logP denotes a lipophilicity value derived from retention on a column. High values mean higher lipophilicity, low ones lower lipophilicity.

One data set relates to Phaedon cochleariae. The experiment in a line: Phaedon cochleariae spray test. The class given is in vivo. As to conditions: for pest or weed control at 500 g/ha: Phaedon cochleariae, 168 h, read-out: efficacy in %. How it is done:
Phaedon cochleariae-Spray Test
Solvent: 78.0 parts by weight of acetone
(§1) • 1.5 parts by weight of dimethylformamide Emulsifier: alkylaryl polyglycol ether
(§2) To produce a suitable preparation of active compound, 1 part by weight of active compound is dissolved using the stated parts by weight of solvent and made up with water containing an emulsifier concentration of 1000 ppm until the desired concentration is attained. To produce further test concentrations, the preparation is diluted with emulsifier-containing water.
After 7 days, the efficacy in % is determined. 100% means that all the beetle larvae have been killed; 0% means that no beetle larvae have been killed.

The test system of another data set is Myzus persicae. Description: Myzus persicae spray test (Chinese cabbage leaf discs). The class given is in vivo. As to conditions: for pest or weed control at 500 g/ha: Myzus persicae, foliar, 144 h, read-out: efficacy in %. How it is done:
Myzus persicae Spray Test
Solvent: 78 parts by weight of acetone
as §1, §2
Discs of Chinese cabbage leaves (Brassica pekinensis) infested by all stages of the green peach aphid (Myzus persicae) are sprayed with an active compound preparation of the desired concentration.
After 6 days, the efficacy in % is determined. 100% means that all the aphids have been killed; 0% means that no aphids have been killed.

The nature of data set [1]: log P by HPLC on reversed-phase column (C18), EEC Directive 79/831 Annex V.A8. The text has this:
Called log P (HCOOH) in the table.
Called log P (neutral) in the table.

[2] abbreviates: 500 g/ha, after 7 days, beetle larvae killed.
The mark [3] stands for this setting: 500 g/ha, after 6 days, aphids killed.
The mark [4] stands for this setting: LC-MS acidic range, pH 2.7 (HCOOH), C18, 55° C.
[5] abbreviates: LC-MS neutral range, pH 7.8, C18, 55° C.
Where [6] appears, read: reversed-phase HPLC column (C18), pH 2.7, logP-acidic, LC-MS acidic range, pH 2.7 (HCOOH), C18, 55° C.
The mark [7] stands for this setting: reversed-phase HPLC column (C18), pH 7.8, log P (neutral), preparation examples, neutral range, pH 7.8.
The mark [8] stands for this setting: reversed-phase HPLC column (C18), pH 7.8, logP-neutral, LC-MS neutral range, pH 7.8, C18, 55° C.

Molecules are shown by their SMILES. Read-outs that look alike come from different tables or passages of the source.

In the case of `CCC(=O)Nc1ccc([S+]([O-])CC)c(-c2nc3cc(C(F)(F)F)ncc3n2C)n1` (stereo not drawn) [Example 2], the efficacy in % with Phaedon cochleariae (setting [2]) worked out at 100%; with Myzus persicae (setting [3]) it was 90%. Moreover, the logP-acidic in data set [1] (pH 2.7) worked out at 2.33. This compound came in with a logP-neutral in data set [1] (pH 7.8) of 2.25.

Turning to `CCOCC(=O)Nc1ccc(S(=O)(=O)CC)c(-c2nc3cc(C(F)(F)F)ncc3n2C)n1` [Example 52], the efficacy in % in the data set with Phaedon cochleariae (setting [2]) and in the data set with Myzus persicae (setting [3]) was 100% throughout. The compound further came in with a logP-acidic in data set [1] (pH 2.7) of 2.64. For the same compound, the logP-neutral in data set [1] (pH 7.8) is 2.51.

Regarding `CCS(=O)(=O)c1ccc(NC(=O)CSC)nc1-c1nc2cc(C(F)(F)F)ncc2n1C` [Example 53], the values for the efficacy in % in the data set on Phaedon cochleariae (setting [2]) and in the data set with Myzus persicae (setting [3]) were 100% and 90%, respectively. In addition, the logP-acidic in data set [1] (pH 2.7) stood at 2.51. The same compound came in with a logP-neutral in data set [1] (pH 7.8) of 2.38.

`CCS(=O)(=O)c1ccc(NC(=O)C(F)(F)C(F)(F)F)nc1-c1nc2cc(C(F)(F)F)ncc2n1C` [Example 4]: the efficacy in % with Phaedon cochleariae (setting [2]) and in the data set on Myzus persicae (setting [3]) was 100% each time. This compound registered a logP-acidic in data set [1] (setting [4]) of 3.17. In data set [1] (setting [5]), the logP-neutral is on record as 1.94.

With `CCS(=O)(=O)c1ccc(NC)nc1-c1nc2cc(C(F)(F)F)ncc2n1C` [Example 38], the efficacy in % is on record as 100% in the data set on Phaedon cochleariae (setting [2]) and 90% in the data set with Myzus persicae (setting [3]). In data set [1] (setting [4]), this compound had a logP-acidic of 2.05. The same compound had a logP-neutral in data set [1] (setting [5]) of 2.03.

For `CCS(=O)(=O)c1ccc(/S(C)=N/C#N)nc1-c1nc2cc(C(F)(F)F)ncc2n1C` (stereo not drawn) [Example 43, [{5-(Ethylsulphonyl)-6-[3-methyl-6-(trifluoromethyl)-3H-imidazo[4,5-c]pyridin-2-yl]pyridin-2-yl}(methyl)-lambda4-sulphanylidene]cyanamide], the pest or weed control at 500 g/ha in the data set with Phaedon cochleariae (setting [2]) is 100%; in the data set on Myzus persicae (setting [3]) it was 90%. In addition, the chromatographic logP in data set [1] (setting [6]), in data set [1] (setting [7]) and in data set [1] (setting [8]) was 1.75 throughout.

Consider `CCS(=O)(=O)c1ccc(NC(=O)C(C)C[S+](C)[O-])nc1-c1nc2cc(C(F)(F)F)ncc2n1C` (stereo not drawn) [Example 57], for which the efficacy in % stood at 100% with Phaedon cochleariae (setting [2]) and 90% with Myzus persicae (setting [3]). The same compound yielded a logP-acidic in data set [1] (pH 2.7) of 1.81.

On to `CCS(=O)(=O)c1ccc(NC(=O)CC2CC2)nc1-c1nc2cc(C(F)(F)F)ncc2n1C` [Example 7], for which the efficacy in % in the data set on Phaedon cochleariae (setting [2]) is on record as 100%; in the data set with Myzus persicae (setting [3]), 90%. This compound also showed a logP-acidic in data set [1] (pH 2.7) of 2.71. In addition, in data set [1] (pH 7.8), the logP-neutral was determined as 2.66.

Take `CCS(=O)(=O)c1ccc(NN)nc1-c1nc2cc(C(F)(F)F)ncc2n1C` [Example 55]: the efficacy in % in the data set with Phaedon cochleariae (setting [2]) and in the data set with Myzus persicae (setting [3]) was 100% in each case. Further, the logP-acidic in data set [1] (setting [4]) was 1.39.

Consider `CC[S+]([O-])c1ccc(S(=O)(=O)CC)c(-c2nc3cc(C(F)(F)F)ncc3n2C)n1` (stereo not drawn) [Example 37, 2-[6-(Ethylsulphinyl)-3-(ethylsulphonyl)pyridin-2-yl]-3-methyl-6-(trifluoromethyl)-3H-imidazo[4,5-c]pyridine], for which the pest or weed control at 500 g/ha was 100% in the data set on Phaedon cochleariae (setting [2]) and 90% in the data set on Myzus persicae (setting [3]). Also, the chromatographic logP turned out to be 2.03 in data set [1] (setting [6]), 2.02 in data set [1] (setting [7]) and 2.02 in data set [1] (setting [8]).

As to `CCS(=O)(=O)c1ccc(NC(=O)c2ccccc2)nc1-c1nc2cc(C(F)(F)F)ncc2n1C` [Example 20], the results for the efficacy in % in the data set with Phaedon cochleariae (setting [2]) and with Myzus persicae (setting [3]) were 83% and 90%, respectively. The compound also yielded a logP-acidic in data set [1] (pH 2.7) of 2.98.

For `CC[S+]([O-])c1ccc(NC(C)=O)nc1-c1nc2cc(C(F)(F)F)ncc2n1C` (stereo not drawn) [Example 9], the efficacy in % with Phaedon cochleariae (setting [2]) is recorded as 83%; with Myzus persicae (setting [3]) it was 90%. In data set [1] (pH 2.7), the logP-acidic came out at 2.02. The logP-neutral in data set [1] (pH 7.8) was found to be 1.97.

For `CCS(=O)(=O)c1ccc(N(C)C(C)=O)nc1-c1nc2cc(C(F)(F)F)ncc2n1C` [Example 69], the efficacy in % with Phaedon cochleariae (setting [2]) is reported as 100%; with Myzus persicae (setting [3]), 90%. The compound further had a logP-acidic in data set [1] (setting [4]) of 2.11. For the same compound, the logP-neutral in data set [1] (setting [5]) is on record as 2.10.

As for `CCS(=O)(=O)c1ccc(NC(=O)C[S+](C)[O-])nc1-c1nc2cc(C(F)(F)F)ncc2n1C` (stereo not drawn) [Example 70], the efficacy in % in the data set on Phaedon cochleariae (setting [2]) and in the data set on Myzus persicae (setting [3]) was 100% each time. The compound also gave a logP-acidic in data set [1] (pH 2.7) of 1.63. Further, the logP-neutral in data set [1] (pH 7.8) stood at 1.68.

For `CCC(=O)Nc1ccc(S(=O)(=O)CC)c(-c2nc3cc(C(F)(F)F)ncc3n2C)n1` [Example 13], the efficacy in % was determined as 100% with Phaedon cochleariae (setting [2]) and 90% in the data set on Myzus persicae (setting [3]). The compound also displayed a logP-acidic in data set [1] (pH 2.7) of 2.33. For the same compound, the logP-neutral in data set [1] (pH 7.8) is 2.28.

`CCS(=O)(=O)c1ccc(C(=S)NC2CC2)nc1-c1nc2cc(C(F)(F)F)ncc2n1C` [Example 36]: the efficacy in % in the data set on Phaedon cochleariae (setting [2]) was 100%; in the data set with Myzus persicae (setting [3]), 90%. This compound also displayed a logP-acidic in data set [1] (pH 2.7) of 3.17. The logP-neutral in data set [1] (pH 7.8) stood at 3.14.

As for `CCS(=O)(=O)c1ccc(NC(=O)C(C)CS(C)(=O)=O)nc1-c1nc2cc(C(F)(F)F)ncc2n1C` (stereo not drawn) [Example 61], the efficacy in % in the data set on Phaedon cochleariae (setting [2]) and in the data set with Myzus persicae (setting [3]) was 100% in each case. In data set [1] (pH 2.7), this compound displayed a logP-acidic of 2.02.

For `CCS(=O)(=O)c1ccc(NC(=O)c2cscn2)nc1-c1nc2cc(C(F)(F)F)ncc2n1C` [Example 66], the efficacy in % came to 100% in the data set on Phaedon cochleariae (setting [2]) and 90% in the data set on Myzus persicae (100 g/ha, after 6 days, aphids killed). Moreover, the logP-acidic in data set [1] (pH 2.7) was 2.60. For the same compound, in data set [1] (pH 7.8), the logP-neutral came out at 2.58.

For the compound `CCS(=O)(=O)c1ccc(NC(=O)C(C)C)nc1-c1nc2cc(C(F)(F)F)ncc2n1C` [Example 16, N-{5-(Ethylsulphonyl)-6-[3-methyl-6-(trifluoromethyl)-3H-imidazo[4,5-c]pyridin-2-yl]pyridin-2-yl}-2-methylpropanamide], the pest or weed control at 500 g/ha with Phaedon cochleariae (setting [2]) and in the data set on Myzus persicae (setting [3]) was 100% each time. The results for the chromatographic logP in data set [1] (setting [6]), in data set [1] (setting [7]) and in data set [1] (setting [8]) were 2.63, 2.61 and 2.61, respectively.

For `CCS(=O)(=O)c1ccc(NC(=O)CS(C)(=O)=O)nc1-c1nc2cc(C(F)(F)F)ncc2n1C` [Example 72], the efficacy in % in the data set on Phaedon cochleariae (setting [2]) and in the data set with Myzus persicae (setting [3]) was 100% each time. The same compound displayed a logP-acidic in data set [1] (pH 2.7) of 1.87. In addition, the logP-neutral in data set [1] (pH 7.8) amounted to 1.92.

For `CCS(=O)(=O)c1ccc(NC(=O)C(F)(F)F)nc1-c1nc2cc(C(F)(F)F)ncc2n1C` [Example 3], the efficacy in % with Phaedon cochleariae (setting [2]) and in the data set on Myzus persicae (setting [3]) was 100% each time. The compound further registered a logP-acidic in data set [1] (pH 2.7) of 2.74. The compound further had a logP-neutral in data set [1] (pH 7.8) of 1.73.

As to `CCS(=O)(=O)c1ccc(NC(C)=S)nc1-c1nc2cc(C(F)(F)F)ncc2n1C` [Example 63, N-[5-Ethylsulphonyl-6-[3-methyl-6-(trifluoromethyl)imidazo[4,5-c]pyridin-2-yl]-2-pyridyl]thioacetamide], the pest or weed control at 500 g/ha was 100% in the data set on Phaedon cochleariae and 90% in the data set with Myzus persicae. Further, the chromatographic logP in data set [1] (pH 2.7) is 2.6; in data set [1] (pH 7.8) it was 2.41.

The record behind these values is patent US10654845B2, “2-(het)aryl-substituted fused bicyclic heterocycle derivatives as pesticides” (BAYER CROPSCIENCE AKTIENGESELLSCHAFT, priority 2015, dated 2020).
